Data on 21 molecules can be found in patent US5843889A, “Glycopeptide antibiotic derivatives” (Eli Lilly and Company, priority 1997, dated 1998).

Test [1] deals with Entercoccus faecalis 2041. Kind of test: MIC, standard broth micro-dilution assay. Type of test: cell-based. As to the method:
(§1) The formula I compounds have in vitro and in vivo activity against Gram-positive pathogenic bacteria. The MIC's were determined using a standard broth micro-dilution assay.
For orientation: In broth dilution the organism is exposed to a series of concentrations in liquid medium.

The test system of test [2] is Entercoccus gallinarum 245. The experiment in a line: MIC, standard broth micro-dilution assay. Format: cell-based. As to the method: as §1

The structures appear in SMILES notation. Converted amounts (≈) assume the structure as drawn.

A word on the MIC: it is the least concentration at which growth counts as inhibited. A low value points to inhibition by little substance. On to `CNC(CC(C)C)C(=O)NC1C(=O)NC(CC(N)=O)C(=O)NC2C(=O)NC3C(=O)NC(C(=O)NC(C(=O)O)c4cc(O)cc(O)c4-c4cc3ccc4O)C(OC3CC(C)(N)C(O)C(C)O3)c3ccc(c(Cl)c3)Oc3cc2cc(c3OC2OC(CO)C(O)C(O)C2OC2CC(C)(NCc3ccc(OCCCc4ccccc4)cc3)C(O)C(C)O2)Oc2ccc(cc2Cl)C1O` (stereo not drawn) [Compound 223, 4-[3-phenylpropyloxy]benzyl], for which the MIC in test [1] is no more than 0.06 µg/mL; in test [2] it was 1 µg/mL (≈ 0.55 µM).

On to `CNC(CC(C)C)C(=O)NC1C(=O)NC(CC(N)=O)C(=O)NC2C(=O)NC3C(=O)NC(C(=O)NC(C(=O)O)c4cc(O)cc(O)c4-c4cc3ccc4O)C(OC3CC(C)(N)C(O)C(C)O3)c3ccc(c(Cl)c3)Oc3cc2cc(c3OC2OC(CO)C(O)C(O)C2OC2CC(C)(NCC3CCC4CCCC43)C(O)C(C)O2)Oc2ccc(cc2Cl)C1O` (stereo not drawn) [Compound 190, cis-bicyclo[3.3.0]octane-2-methyl], for which the MIC in test [1] is no more than 0.06 µg/mL; in test [2], 8 µg/mL (≈ 4.67 µM).

In test [2], `CNC(CC(C)C)C(=O)NC1C(=O)NC(CC(N)=O)C(=O)NC2C(=O)NC3C(=O)NC(C(=O)NC(C(=O)O)c4cc(O)cc(O)c4-c4cc3ccc4O)C(OC3CC(C)(N)C(O)C(C)O3)c3ccc(c(Cl)c3)Oc3cc2cc(c3OC2OC(CO)C(O)C(O)C2OC2CC(C)(NCc3ccc(OC(C)=O)c(OC)c3)C(O)C(C)O2)Oc2ccc(cc2Cl)C1O` (stereo not drawn) [Compound 99, 4-acetoxy-3-methoxybenzyl] came in with an MIC of 32 µg/mL (≈ 18.1 µM).

`CCCCCCCCc1ccc(-c2ccc(CNC3(C)CC(OC4C(Oc5c6cc7cc5Oc5ccc(cc5Cl)C(OC5CC(C)(N)C(O)C(C)O5)C5NC(=O)C(NC(=O)C7NC(=O)C(CC(N)=O)NC(=O)C(NC(=O)C(CC(C)C)NC)C(O)c7ccc(c(Cl)c7)O6)c6ccc(O)c(c6)-c6c(O)cc(O)cc6C(C(=O)O)NC5=O)OC(CO)C(O)C4O)OC(C)C3O)cc2)cc1` (stereo not drawn) [Compound 21] gave a minimal inhibitory concentration (MIC) in test [2] of 8 µg/mL (≈ 4.28 µM).

Take `CNC(CC(C)C)C(=O)NC1C(=O)NC(CC(N)=O)C(=O)NC2C(=O)NC3C(=O)NC(C(=O)NC(C(=O)O)c4cc(O)cc(O)c4-c4cc3ccc4O)C(OC3CC(C)(N)C(O)C(C)O3)c3ccc(c(Cl)c3)Oc3cc2cc(c3OC2OC(CO)C(O)C(O)C2OC2CC(C)(NCc3ccc4c(c3)CCc3ccccc3-4)C(O)C(C)O2)Oc2ccc(cc2Cl)C1O` (stereo not drawn) [Compound 220]: the MIC is no more than 0.06 µg/mL in test [1] and 0.5 µg/mL (≈ 0.28 µM) in test [2].

As for `CNC(CC(C)C)C(=O)NC1C(=O)NC(CC(N)=O)C(=O)NC2C(=O)NC3C(=O)NC(C(=O)NC(C(=O)O)c4cc(O)cc(O)c4-c4cc3ccc4O)C(OC3CC(C)(N)C(O)C(C)O3)c3ccc(c(Cl)c3)Oc3cc2cc(c3OC2OC(CO)C(O)C(O)C2OC2CC(C)(NCCCCCCc3ccccc3)C(O)C(C)O2)Oc2ccc(cc2Cl)C1O` (stereo not drawn) [Compound 196, 6-phenylhexyl], the MIC was no more than 0.06 µg/mL in test [1] and 1 µg/mL (≈ 0.571 µM) in test [2].

Consider `CN[C@H](CC(C)C)C(=O)N[C@H]1C(=O)N[C@@H](CC(N)=O)C(=O)N[C@H]2C(=O)N[C@H]3C(=O)N[C@H](C(=O)N[C@H](C(=O)O)c4cc(O)cc(O)c4-c4cc3ccc4O)[C@H](O[C@H]3C[C@](C)(N)[C@@H](O)[C@H](C)O3)c3ccc(c(Cl)c3)Oc3cc2cc(c3O[C@@H]2O[C@H](CO)[C@@H](O)[C@H](O)[C@H]2O[C@H]2C[C@](C)(NCc3ccc(OCc4ccc(Cl)cc4)cc3)[C@@H](O)[C@H](C)O2)Oc2ccc(cc2Cl)[C@H]1O` [Compound 93, 4-[4-chlorobenzyloxy]benzyl], for which the MIC in test [1] is no more than 0.06 µg/mL; in test [2], 1 µg/mL (≈ 0.549 µM).

For `CNC(CC(C)C)C(=O)NC1C(=O)NC(CC(N)=O)C(=O)NC2C(=O)NC3C(=O)NC(C(=O)NC(C(=O)O)c4cc(O)cc(O)c4-c4cc3ccc4O)C(OC3CC(C)(N)C(O)C(C)O3)c3ccc(c(Cl)c3)Oc3cc2cc(c3OC2OC(CO)C(O)C(O)C2OC2CC(C)(NCC3CCC(COCc4ccccc4)CC3)C(O)C(C)O2)Oc2ccc(cc2Cl)C1O` (stereo not drawn) [Compound 239], the MIC in test [1] was no more than 0.06 µg/mL; in test [2] it was 1 µg/mL (≈ 0.553 µM).

Take `CNC(CC(C)C)C(=O)NC1C(=O)NC(CC(N)=O)C(=O)NC2C(=O)NC3C(=O)NC(C(=O)NC(C(=O)O)c4cc(O)cc(O)c4-c4cc3ccc4O)C(OC3CC(C)(N)C(O)C(C)O3)c3ccc(c(Cl)c3)Oc3cc2cc(c3OC2OC(CO)C(O)C(O)C2OC2CC(C)(NCc3ccc(-c4ccc(C)cc4)c(C)c3)C(O)C(C)O2)Oc2ccc(cc2Cl)C1O` (stereo not drawn) [Compound 225, 4-[4-methylphenyl]-3-methylbenzyl]: the MIC in test [2] turned out to be 4 µg/mL (≈ 2.24 µM).

With `CNC(CC(C)C)C(=O)NC1C(=O)NC(CC(N)=O)C(=O)NC2C(=O)NC3C(=O)NC(C(=O)NC(C(=O)O)c4cc(O)cc(O)c4-c4cc3ccc4O)C(OC3CC(C)(N)C(O)C(C)O3)c3ccc(c(Cl)c3)Oc3cc2cc(c3OC2OC(CO)C(O)C(O)C2OC2CC(C)(NCc3ccc([N+](=O)[O-])cc3)C(O)C(C)O2)Oc2ccc(cc2Cl)C1O` (stereo not drawn) [Compound 78, 4-nitrobenzyl], the MIC in test [1] is no more than 0.06 µg/mL.

Consider `CNC(CC(C)C)C(=O)NC1C(=O)NC(CC(N)=O)C(=O)NC2C(=O)NC3C(=O)NC(C(=O)NC(C(=O)O)c4cc(O)cc(O)c4-c4cc3ccc4O)C(OC3CC(C)(N)C(O)C(C)O3)c3ccc(c(Cl)c3)Oc3cc2cc(c3OC2OC(CO)C(O)C(O)C2OC2CC(C)(NCc3ccc(I)s3)C(O)C(C)O2)Oc2ccc(cc2Cl)C1O` (stereo not drawn) [Compound 74, 5-iodo-2-thienylmethyl], for which the MIC in test [1] and in test [2] was no more than 0.06 µg/mL throughout.

Consider `CCOc1cc(CNC2(C)CC(OC3C(Oc4c5cc6cc4Oc4ccc(cc4Cl)C(OC4CC(C)(N)C(O)C(C)O4)C4NC(=O)C(NC(=O)C6NC(=O)C(CC(N)=O)NC(=O)C(NC(=O)C(CC(C)C)NC)C(O)c6ccc(c(Cl)c6)O5)c5ccc(O)c(c5)-c5c(O)cc(O)cc5C(C(=O)O)NC4=O)OC(CO)C(O)C3O)OC(C)C2O)ccc1OCC1CCCCC1` (stereo not drawn) [Compound 105, 4-[cyclohexylmethoxy]-3-ethoxybenzyl], for which the MIC in test [2] is 1 µg/mL (≈ 0.544 µM).

Turning to `CNC(CC(C)C)C(=O)NC1C(=O)NC(CC(N)=O)C(=O)NC2C(=O)NC3C(=O)NC(C(=O)NC(C(=O)O)c4cc(O)cc(O)c4-c4cc3ccc4O)C(OC3CC(C)(N)C(O)C(C)O3)c3ccc(c(Cl)c3)Oc3cc2cc(c3OC2OC(CO)C(O)C(O)C2OC2CC(C)(NCC3CCCCC3)C(O)C(C)O2)Oc2ccc(cc2Cl)C1O` (stereo not drawn) [Compound 161, cyclohexylmethyl], the results for the MIC in test [1] and in test [2] were no more than 0.06 µg/mL and 8 µg/mL (≈ 4.74 µM), respectively.

For the molecule `CNC(CC(C)C)C(=O)NC1C(=O)NC(CC(N)=O)C(=O)NC2C(=O)NC3C(=O)NC(C(=O)NC(C(=O)O)c4cc(O)cc(O)c4-c4cc3ccc4O)C(OC3CC(C)(N)C(O)C(C)O3)c3ccc(c(Cl)c3)Oc3cc2cc(c3OC2OC(CO)C(O)C(O)C2OC2CC(C)(NCc3ccc(Oc4ccc(OC)cc4)cc3)C(O)C(C)O2)Oc2ccc(cc2Cl)C1O` (stereo not drawn) [Compound 98, 4-[4-methoxyphenoxy]benzyl], the MIC was no more than 0.06 µg/mL in test [1] and 1 µg/mL (≈ 0.554 µM) in test [2].

In the case of `CN[C@H](CC(C)C)C(=O)N[C@H]1C(=O)N[C@@H](CC(N)=O)C(=O)N[C@H]2C(=O)N[C@H]3C(=O)N[C@H](C(=O)N[C@H](C(=O)O)c4cc(O)cc(O)c4-c4cc3ccc4O)[C@H](O[C@H]3C[C@](C)(N)[C@@H](O)[C@H](C)O3)c3ccc(c(Cl)c3)Oc3cc2cc(c3O[C@@H]2O[C@H](CO)[C@@H](O)[C@H](O)[C@H]2O[C@H]2C[C@](C)(NCc3ccc(-c4cccc(F)c4)cc3)[C@@H](O)[C@H](C)O2)Oc2ccc(cc2Cl)[C@H]1O` [Compound 92, 4-[3-fluorophenyl]benzyl], the minimal inhibitory concentration (MIC) in test [2] was 2 µg/mL (≈ 1.13 µM).

For the molecule `CNC(CC(C)C)C(=O)NC1C(=O)NC(CC(N)=O)C(=O)NC2C(=O)NC3C(=O)NC(C(=O)NC(C(=O)O)c4cc(O)cc(O)c4-c4cc3ccc4O)C(OC3CC(C)(N)C(O)C(C)O3)c3ccc(c(Cl)c3)Oc3cc2cc(c3OC2OC(CO)C(O)C(O)C2OC2CC(C)(NCc3c(C)c(C)c(C)c(C)c3C)C(O)C(C)O2)Oc2ccc(cc2Cl)C1O` (stereo not drawn) [Compound 73], the MIC in test [2] was 2 µg/mL (≈ 1.14 µM).

Consider `CNC(CC(C)C)C(=O)NC1C(=O)NC(CC(N)=O)C(=O)NC2C(=O)NC3C(=O)NC(C(=O)NC(C(=O)O)c4cc(O)cc(O)c4-c4cc3ccc4O)C(OC3CC(C)(N)C(O)C(C)O3)c3ccc(c(Cl)c3)Oc3cc2cc(c3OC2OC(CO)C(O)C(O)C2OC2CC(C)(NCc3ccc(N4CCC(C)CC4)cc3)C(O)C(C)O2)Oc2ccc(cc2Cl)C1O` (stereo not drawn) [Compound 129, 4-[4-methyl-1-piperidino]benzyl], for which the MIC in test [1] is no more than 0.06 µg/mL.

Molecule `CNC(CC(C)C)C(=O)NC1C(=O)NC(CC(N)=O)C(=O)NC2C(=O)NC3C(=O)NC(C(=O)NC(C(=O)O)c4cc(O)cc(O)c4-c4cc3ccc4O)C(OC3CC(C)(N)C(O)C(C)O3)c3ccc(c(Cl)c3)Oc3cc2cc(c3OC2OC(CO)C(O)C(O)C2OC2CC(C)(NCc3ccc([S+]([O-])c4ccccc4)cc3)C(O)C(C)O2)Oc2ccc(cc2Cl)C1O` (stereo not drawn) [Compound 159, 4-[phenylsulfinyl]benzyl] had an MIC in test [2] of 8 µg/mL (≈ 4.43 µM).

`CNC(CC(C)C)C(=O)NC1C(=O)NC(CC(N)=O)C(=O)NC2C(=O)NC3C(=O)NC(C(=O)NC(C(=O)O)c4cc(O)cc(O)c4-c4cc3ccc4O)C(OC3CC(C)(N)C(O)C(C)O3)c3ccc(c(Cl)c3)Oc3cc2cc(c3OC2OC(CO)C(O)C(O)C2OC2CC(C)(NCc3ccc(OCC(O)CO)cc3)C(O)C(C)O2)Oc2ccc(cc2Cl)C1O` (stereo not drawn) [Compound 177, 4-[2,3-dihydroxypropoxy]benzyl]: in test [2], the MIC was determined as 16 µg/mL (≈ 9.03 µM).

Consider `CNC(CC(C)C)C(=O)NC1C(=O)NC(CC(N)=O)C(=O)NC2C(=O)NC3C(=O)NC(C(=O)NC(C(=O)O)c4cc(O)cc(O)c4-c4cc3ccc4O)C(OC3CC(C)(N)C(O)C(C)O3)c3ccc(c(Cl)c3)Oc3cc2cc(c3OC2OC(CO)C(O)C(O)C2OC2CC(C)(NCc3ccc(N4CCOCC4)cc3)C(O)C(C)O2)Oc2ccc(cc2Cl)C1O` (stereo not drawn) [Compound 147, 4-morpholinobenzyl], for which the MIC in test [1] was no more than 0.06 µg/mL.

In test [1], `CNC(CC(C)C)C(=O)NC1C(=O)NC(CC(N)=O)C(=O)NC2C(=O)NC3C(=O)NC(C(=O)NC(C(=O)O)c4cc(O)cc(O)c4-c4cc3ccc4O)C(OC3CC(C)(N)C(O)C(C)O3)c3ccc(c(Cl)c3)Oc3cc2cc(c3OC2OC(CO)C(O)C(O)C2OC2CC(C)(NCc3ccc(-c4ccc(O)cc4)cc3)C(O)C(C)O2)Oc2ccc(cc2Cl)C1O` (stereo not drawn) [Compound 20, 4-[4-hydroxyphenyl]benzyl] registered an MIC of no more than 0.06 µg/mL.
